The subject of the experiment is HCV genotype 1b replicon. Put plainly: HCV replicon assay (1b_Huh-Luc/Neo-ET cell line, luciferase readout). It counts as cell-based. The settings on record: Hepatitis C virus, Huh-7, 72 h, read-out: Inhibition of HCV genotype 1b. The protocol: Biological activity of the compounds of the invention was determined using an HCV replicon assay. The 1b_Huh-Luc/Neo-ET cell line persistently expressing a bicistronic genotype 1b replicon in Huh 7 cells was obtained from ReBLikon GMBH. This cell line was used to test compound inhibition using luciferase enzyme activity readout as a measurement of compound inhibition of replicon levels.
On Day 1 (the day after plating), each compound is added in triplicate to the cells. Plates incubated for 72 h prior to running the luciferase assay. Enzyme activity was measured using a Bright-Glo Kit (cat. number E2620) manufactured by Promega Corporation. The following equation was used to generate a percent control value for each compound. % Control=(Average Compound Value/Average Control)*100
The EC50 value was determined using GraphPad Prism and the following equation: Y=Bottom+(Top−Bottom)/1+10^((Log IC50−X)*HillSlope))
EC50 values of compounds are repeated several times in the replicon assay.
With `CNC(=O)N[C@@H](C(=O)N1CCC[C@H]1c1nc(-c2ccc3cc(-c4ccc(-c5cnc([C@@H]6CCCN6C(=O)[C@@H](NC(=O)OC)C(C)C)[nH]5)cc4)ccc3c2)c[nH]1)c1ccccc1` [14s], the EC50 was under 1 nM.
Consider `COC(=O)N[C@H](C(=O)N1CCC[C@H]1c1ncc(-c2ccc(-c3ccc4cc(-c5c[nH]c([C@@H]6CCCN6C(=O)[C@@H](c6ccccc6)N6CCCC6)n5)ccc4c3)cc2)[nH]1)C(C)C` [Compound 9], for which the EC50 was under 1 nM.
To `CNC(=O)N[C@@H](C(=O)N1CCC[C@H]1c1ncc(-c2ccc(-c3ccc4cc(-c5c[nH]c([C@@H]6CCCN6C(=O)[C@@H](NC(=O)OC)C(C)C)n5)ccc4c3)cc2)[nH]1)c1ccccc1` [Compound 18] belongs under 1 nM.
As for `COC(=O)N[C@H](C(=O)N1CCC[C@H]1c1nc(-c2ccc3cc(-c4ccc(-c5cnc([C@@H]6CCCN6C(=O)[C@@H](NC(=O)OC)C(C)C)[nH]5)cc4)ccc3c2)c[nH]1)C(C)C` [compound 1], the EC50 is under 1 nM.
For `COC(=O)N[C@@H](C(=O)N1CCC[C@H]1c1nc(-c2ccc3cc(-c4ccc(-c5cnc([C@@H]6CCCN6C(=O)[C@H](NC(=O)OC)C(C)C)[nH]5)cc4)ccc3c2)c[nH]1)C(C)C` [compound 2], the EC50 is under 1 nM.
With `COC(=O)N[C@H](C(=O)N1CCC[C@H]1c1nc(-c2ccc3cc(-c4ccc(-c5cnc([C@@H]6CCCN6C(=O)[C@@H](NC(=O)OC)[C@@H](C)OC)[nH]5)cc4)ccc3c2)c[nH]1)[C@@H](C)OC` [compound 3], the EC50 is under 1 nM.
`COC(=O)N[C@H](C(=O)N1CCC[C@H]1c1nc(-c2ccc3cc(-c4ccc(-c5cnc([C@@H]6CCCN6C(=O)[C@@H](NC(=O)OC)[C@@H](C)O)[nH]5)cc4)ccc3c2)c[nH]1)[C@@H](C)O` [compound 4]: the EC50 was under 1 nM.
Then `COC(=O)N[C@H](C(=O)N1CCC[C@H]1c1nc(-c2ccc3cc(-c4ccc(-c5cnc([C@@H]6CCCN6C(=O)[C@@H](c6ccccc6)N(C)C)[nH]5)cc4)ccc3c2)c[nH]1)C(C)C` [compound 5], with under 1 nM; and `COC(=O)N[C@H](C(=O)N1CCC[C@H]1c1ncc(-c2ccc(-c3ccc4cc(-c5c[nH]c([C@@H]6CCCN6C(=O)[C@@H](c6ccccc6)N(C)C)n5)ccc4c3)cc2)[nH]1)C(C)C` [compound 6], with under 1 nM; and `COC(=O)N[C@H](C(=O)N1CCC[C@H]1c1ncc(-c2ccc(-c3ccc4cc(-c5c[nH]c([C@@H]6CCCN6C(=O)[C@H](NC(=O)OC)c6ccccc6)n5)ccc4c3)cc2)[nH]1)C(C)C` [compound 7], with under 1 nM.
For the molecule `COC(=O)N[C@H](C(=O)N1CCC[C@H]1c1nc(-c2ccc3cc(-c4ccc(-c5cnc([C@@H]6CCCN6C(=O)[C@H](NC(=O)OC)c6ccccc6)[nH]5)cc4)ccc3c2)c[nH]1)C(C)C` [compound 8], the EC50 is under 1 nM.
As for `COC(=O)N[C@H](C(=O)N1CCC[C@H]1c1nc(-c2ccc3cc(-c4ccc(-c5cnc([C@@H]6CCCN6C(=O)[C@@H](c6ccccc6)N6CCCC6)[nH]5)cc4)ccc3c2)c[nH]1)C(C)C` [compound 10], the EC50 is under 1 nM.
Then `COC(=O)N[C@H](C(=O)N1CCC[C@H]1c1nc(-c2ccc3nc(-c4ccc(-c5cnc([C@@H]6CCCN6C(=O)[C@@H](NC(=O)OC)C(C)C)[nH]5)cc4)cnc3c2)c[nH]1)C(C)C` [compound 11], with under 1 nM.
On to `COC(=O)N[C@H](C(=O)N1CCC[C@H]1c1ncc(-c2ccc(-c3cnc4ccc(-c5cnc([C@@H]6CCCN6C(=O)[C@@H](NC(=O)OC)C(C)C)[nH]5)cc4n3)cc2)[nH]1)C(C)C` [compound 12], for which the EC50 was in the range of 1 to 9.9 nM.
With `COC(=O)N[C@H](C(=O)N1CCC[C@H]1c1nc(-c2ccc3cc(-c4ccc(-c5cnc([C@@H]6CCCN6C(=O)[C@@H](NC(=O)OC)C(C)C)[nH]5)cn4)ccc3c2)c[nH]1)C(C)C` [compound 13], the EC50 is under 1 nM.
Then `COC(=O)N[C@H](C(=O)N1CCC[C@H]1c1ncc(-c2ccc(-c3ccc4cc(-c5c[nH]c([C@@H]6CCCN6C(=O)[C@H](NC(=O)N6CC[C@H](O)C6)c6ccccc6)n5)ccc4c3)cc2)[nH]1)C(C)C` [compound 15], with under 1 nM.
For `COC(=O)N[C@H](C(=O)N1CCC[C@H]1c1nc(-c2ccc3cc(-c4ccc(-c5cnc([C@@H]6CCCN6C(=O)[C@H](NC(=O)N6CC[C@H](O)C6)c6ccccc6)[nH]5)cc4)ccc3c2)c[nH]1)C(C)C` [compound 16], the EC50 was under 1 nM.
For the molecule `COC(=O)N[C@H](C(=O)N1CCC[C@H]1c1nc(-c2ccc3nc(-c4ccc(-c5cnc([C@@H]6CCCN6C(=O)[C@@H](NC(=O)OC)C(C)C)[nH]5)cc4)ncc3c2)c[nH]1)C(C)C` [compound 17], the EC50 is under 1 nM.
On to `COC(=O)N[C@H](C(=O)N1CCC[C@H]1c1nc(-c2cnc3cc(-c4ccc(-c5cnc([C@@H]6CCCN6C(=O)[C@@H](NC(=O)OC)C(C)C)[nH]5)cc4)ccc3c2)c[nH]1)C(C)C` [compound 19], for which the EC50 is under 1 nM.
With `COC(=O)N[C@H](C(=O)N1CCC[C@H]1c1ncc(-c2ccc(-c3cccc4c(-c5cnc([C@@H]6CCCN6C(=O)[C@@H](NC(=O)OC)C(C)C)[nH]5)cccc34)cc2)[nH]1)C(C)C` [compound 20], the EC50 is under 1 nM.
With `COC(=O)N[C@H](C(=O)N1CCC[C@H]1c1nc(-c2ccc3cc(-c4ccc(-c5cnc([C@@H]6CCCN6C(=O)[C@@H](NC(=O)OC)C(C)C)[nH]5)cc4)cnc3c2)c[nH]1)C(C)C` [compound 21], the EC50 is under 1 nM.
With `COC(=O)N[C@H](C(=O)N1CCC[C@H]1c1nc(-c2ccc3cc(-c4ccc(-c5cnc([C@@H]6CCCN6C(=O)[C@@H](NC(=O)OC)C(C)C)[nH]5)cc4)ncc3c2)c[nH]1)C(C)C` [compound 22], the EC50 is under 1 nM.
As for `COC(=O)N[C@H](C(=O)N1CCC[C@H]1c1ncc(-c2ccc(-c3ccc4cc(-c5c[nH]c([C@@H]6CCCN6C(=O)[C@H](NC(=O)NC(C)(C)C)c6ccccc6)n5)ccc4c3)cc2)[nH]1)C(C)C` [compound 23], the EC50 was under 1 nM.
To `COC(=O)N[C@H](C(=O)N1CCC[C@H]1c1nc(-c2ccc3cc(-c4ccc(-c5cnc([C@@H]6CCCN6C(=O)[C@H](NC(=O)NC6CC6)c6ccccc6)[nH]5)cc4)ccc3c2)c[nH]1)C(C)C` [compound 24] belongs under 1 nM; to `COC(=O)NC(C(=O)N1CCC[C@H]1c1nc(-c2ccc3cc(-c4ccc(-c5cnc([C@@H]6CCCN6C(=O)[C@H](NC(=O)NC(C)(C)C)c6ccccc6)[nH]5)cc4)ccc3c2)c[nH]1)C(C)C` (stereo partly shown) [compound 25], under 1 nM.
As for `COC(=O)N[C@H](C(=O)N1CCC[C@H]1c1nc(-c2ccc3nc(-c4ccc(-c5cnc([C@@H]6CCCN6C(=O)[C@H](NC(=O)OC)c6ccccc6)[nH]5)cc4)ccc3c2)c[nH]1)C(C)C` [compound 26], the EC50 was under 1 nM.
Turning to `CCNC(=O)N[C@@H](C(=O)N1CCC[C@H]1c1ncc(-c2ccc(-c3ccc4cc(-c5c[nH]c([C@@H]6CCCN6C(=O)[C@@H](NC(=O)OC)C(C)C)n5)ccc4c3)cc2)[nH]1)c1ccccc1` [compound 27], the EC50 is under 1 nM.
For `CCNC(=O)N[C@@H](C(=O)N1CCC[C@H]1c1nc(-c2ccc3cc(-c4ccc(-c5cnc([C@@H]6CCCN6C(=O)[C@@H](NC(=O)OC)C(C)C)[nH]5)cc4)ccc3c2)c[nH]1)c1ccccc1` [compound 28], the EC50 is under 1 nM.
As to `COC(=O)N[C@H](C(=O)N1CCC[C@H]1c1ncc(-c2ccc(-c3ccc4cc(-c5c[nH]c([C@@H]6CCCN6C(=O)[C@H](NC(=O)NC6CC6)c6ccccc6)n5)ccc4c3)cc2)[nH]1)C(C)C` [compound 29], the EC50 is under 1 nM.
For the molecule `COC(=O)N[C@H](C(=O)N1CCC[C@H]1c1nc(-c2ccc3nc(-c4ccc(-c5cnc([C@@H]6CCCN6C(=O)[C@H](NC(=O)OC(C)(C)C)c6ccccc6)[nH]5)cc4)ccc3c2)c[nH]1)C(C)C` [compound 30], the EC50 is under 1 nM.
Then `CNC(=O)N[C@@H](C(=O)N1CCC[C@H]1c1ncc(-c2ccc(-c3ccc4cc(-c5c[nH]c([C@@H]6CCCN6C(=O)[C@@H](NC(=O)OC)C(C)C)n5)ccc4n3)cc2)[nH]1)c1ccccc1` [compound 31], with under 1 nM.
In the case of `COC(=O)N[C@H](C(=O)N1CCC[C@H]1c1nc(-c2cnc3cc(-c4ccc(-c5cnc([C@@H]6CCCN6C(=O)[C@H](NC(=O)OC)c6ccccc6)[nH]5)cc4)ccc3c2)c[nH]1)C(C)C` [compound 32], the EC50 was under 1 nM.
As to `CCNC(=O)N[C@@H](C(=O)N1CCC[C@H]1c1ncc(-c2ccc(-c3ccc4cc(-c5c[nH]c([C@@H]6CCCN6C(=O)[C@@H](NC(=O)OC)C(C)C)n5)ccc4n3)cc2)[nH]1)c1ccccc1` [compound 33], the EC50 was under 1 nM.
`COC(=O)N[C@H](C(=O)N1CCC[C@H]1c1nc(-c2ccc3nc(-c4ccc(-c5cnc([C@@H]6CCCN6C(=O)[C@H](NC(=O)NC6CC6)c6ccccc6)[nH]5)cc4)ccc3c2)c[nH]1)C(C)C` [compound 34]: the EC50 was under 1 nM.
With `COC(=O)N[C@H](C(=O)N1CCC[C@H]1c1ncc(-c2ccc(-c3ccc4cc(-c5c[nH]c([C@@H]6CCCN6C(=O)[C@H](NC(=O)OC(C)(C)C)c6ccccc6)n5)ccc4n3)cc2)[nH]1)C(C)C` [compound 35], the EC50 is under 1 nM.
Then `CNC(=O)N[C@@H](C(=O)N1CCC[C@H]1c1nc(-c2ccc3nc(-c4ccc(-c5cnc([C@@H]6CCCN6C(=O)[C@@H](NC(=O)OC)C(C)C)[nH]5)cc4)ccc3c2)c[nH]1)c1ccccc1` [compound 36], with under 1 nM; and `CCNC(=O)N[C@@H](C(=O)N1CCC[C@H]1c1nc(-c2ccc3nc(-c4ccc(-c5cnc([C@@H]6CCCN6C(=O)[C@@H](NC(=O)OC)C(C)C)[nH]5)cc4)ccc3c2)c[nH]1)c1ccccc1` [compound 37], with under 1 nM.

For the origin of these results see patent US8618151B2, “Inhibitors of HCV NS5A” (Presidio Pharmaceuticals, Inc., priority 2008, dated 2013).
